Measurements as given in the NIST ThermoML archive (doi:10.1016/j.jct.2012.05.029).
Numbers after ± are expanded uncertainties.

Experiment: molar enthalpy of vaporization or sublimation
Settings: Liquid, Thermogravimetric Analysis

SMILES	molar enthalpy (541.8 K)	other results
CCCCCCCCCCn1cc[n+](C)c1.O=S(=O)([N-]S(=O)(=O)C(F)(F)F)C(F)(F)F		molar enthalpy (522 K): 29.9 ± 0.717 kcal/mol
CCCCCCCCCCCCCCn1cc[n+](C)c1.O=S(=O)([N-]S(=O)(=O)C(F)(F)F)C(F)(F)F	31.7 ± 0.717 kcal/mol	
CCCCCCCCCCCCCCCCCC[n+]1ccn(C)c1.O=S(=O)([N-]S(=O)(=O)C(F)(F)F)C(F)(F)F		molar enthalpy (582.5 K): 33.1 ± 0.717 kcal/mol
CCCCCCCCCCCCCCCCn1cc[n+](C)c1.O=S(=O)([N-]S(=O)(=O)C(F)(F)F)C(F)(F)F	32.6 ± 0.717 kcal/mol	
CCCC[n+]1ccn(C)c1.O=S(=O)([N-]S(=O)(=O)C(F)(F)F)C(F)(F)F	27.1 ± 0.717 kcal/mol	
CCCCCCCCn1cc[n+](C)c1.O=S(=O)([N-]S(=O)(=O)C(F)(F)F)C(F)(F)F	29.3 ± 0.717 kcal/mol	
CCCCCCCCCCCCn1cc[n+](C)c1.O=S(=O)([N-]S(=O)(=O)C(F)(F)F)C(F)(F)F		molar enthalpy (533.5 K): 30.1 ± 0.717 kcal/mol
CCCCCC[n+]1ccn(C)c1.O=S(=O)([N-]S(=O)(=O)C(F)(F)F)C(F)(F)F	28.2 ± 0.717 kcal/mol	
